Details of data set [1]: species or system nude BALB/c mice. Conditions: mouse, in vivo, 5 MBq.
Data set [2] has as its system s.c. CEA-expressing LS174T tumor. More on the design: species or system nude BALB/c mice. Conditions: mouse.

This is an account of results in publication PMC2852483 (Molecular cancer therapeutics, 2010).

Numbered stars: 1 amine (or outer) side, 2 acyl side, 3 side chain; on linkers, the order of the positions; unused ones are H or OH. Square brackets hold non-standard residues; d marks the D form. Side chains are listed from the residue outwards. Peptide text beside a SMILES is read from it. * marks the point of attachment. NOTA(2S-Bn(4-NHCS)) = O=C(O)CN1CCN(CC(=O)O)C[C@H](Cc2ccc(NC(=S)*)cc2)N(CC(=O)O)CC1; NH(2-(imidazol-4-yl)ethyl) = c1ncc(CCN*)[nH]1; Suc = O=C(CCC(=O)[*:2])[*:1]

As usually defined, the tissue uptake is the percentage of the injected dose found per gram of tissue. A higher tissue uptake goes with high uptake. The compound `C[C@@H](NC(=S)Nc1ccc(C[C@H]2CN(CC(=O)O)CCN(CC(=O)O)CCN2CC(=O)O)cc1)C(=O)N[C@H](CCCCNC(=O)CNC(=O)CCC(=O)NCCc1c[nH]cn1)C(=O)N[C@H](Cc1ccc(O)cc1)C(=O)N[C@H](CCCCNC(=O)CNC(=O)CCC(=O)NCCc1c[nH]cn1)C(N)=O` [IMP-449] ({NOTA(2S-Bn(4-NHCS))}-[dA][dK]([Gly-Suc-NH(2-(imidazol-4-yl)ethyl)])[dY][dK]([Gly-Suc-NH(2-(imidazol-4-yl)ethyl)])-NH2; N-terminus and C-terminus assumed) registered a tissue uptake in data set [1] of 0.54 ± 0.2 %ID/g.

Take `C[C@@H](NC(=S)Nc1ccc(C[C@H]2CN(CC(=O)O)CCN(CC(=O)O)CCN2CC(=O)O)cc1)C(=O)N[C@H](CCCCNC(=O)CNC(=O)CCC(=O)NCCc1c[nH]cn1)C(=O)N[C@H](Cc1ccc(O)cc1)C(=O)N[C@H](CCCCNC(=O)CNC(=O)CCC(=O)NCCc1c[nH]cn1)C(N)=O` [^18F-IMP-449] ({NOTA(2S-Bn(4-NHCS))}-[dA][dK]([Gly-Suc-NH(2-(imidazol-4-yl)ethyl)])[dY][dK]([Gly-Suc-NH(2-(imidazol-4-yl)ethyl)])-NH2; N-terminus and C-terminus assumed): in data set [2], the stability in vivo result was “stable in vivo”. For the same compound, in data set [2] (in vivo), the “tumor uptake in non-pretargeted mice” value amounted to 0.45 ± 0.38 % ID/g.
